Results from patent US4275072A, “2,6-Dichlorophenyl-substituted amino-imidazole derivatives and use as hypertensive agents” (priority 1979, dated 1981).

Key:
[1] = system: anesthetized Sprague-Dawley rats; assay: blood pressure and pulse frequency in anesthetized Sprague-Dawley rats, i.v.; assay type: in vivo
Procedure: The test animals are first anesthetized with urethane. […] The test substance is injected into the femoral vein.

[2] = system: Okamoto-Aoki spontaneous hypertensive rats (SHR); assay: blood pressure in unanesthetized spontaneous hypertensive rats (SHR), peroral; assay type: in vivo; settings: 100 mg/kg p.o.
Procedure: (§1) In a further test unanesthetized Okamoto-Aoki spontaneous hypertensive rats (SHR) are used. The test derivative is administered perorally by way of a tube into the stomach. The blood pressure is measured from the tail using an indirect bloodless method.

gastric ulcers = assay: anti-ulcer activity: gastric ulcers induced by anti-inflammatory agents (e.g., indomethacin); assay type: in vivo; settings: i.p., ulcers counted after three hours, fasted female rats
[3] = preliminary tests of further pharmacological activities; settings: in words
[4] = anti-hypertensive activity in mammals, overall observations; settings: in words; for anti-hypertensive activity: in mammals
Procedure: The anti-hypertensive properties of the imidazole derivatives of the invention may be shown by using anesthetized Sprague-Dawley rats of normal weight. The test animals are first anesthetized with urethane. After this the femoral artery is connected by way of a polyethylene tube with a blood pressure transducer. The test substance is injected into the femoral vein. The blood pressure and the pulse frequency are registered with a recorder.
as §1

Sprague-Dawley male rats = assay: diuretic effect: urine volume in rats after intraperitoneal injection; assay type: in vivo; settings: for Mean Cumulative Volume of Urine, 0-1 hours / Mean Cumulative Volume of Urine, 0-2 hours / Mean Cumulative Volume of Urine, 0-3 hours / Mean Cumulative Volume of Urine, 0-4 hours / Mean Cumulative Volume of Urine, 0-5 hours: 2 mg/kg intraperitoneally, 6 rats, 10 ml water by gastric tube; for Mean Cumulative Volume of Urine, 0-1 hours: saline control 1.1; for Mean Cumulative Volume of Urine, 0-2 hours: saline control 7.2; for Mean Cumulative Volume of Urine, 0-3 hours: saline control 11.4; for Mean Cumulative Volume of Urine, 0-4 hours / Mean Cumulative Volume of Urine, 0-5 hours: saline control 13.5; for diuretic activity: in words
Procedure: The diuretic effect of the intermediates may be studied by injecting the compounds intraperitoneally to adult Sprague-Dawley male rats after an overnight fast. Simultaneously, 10 ml of water is fed to each rat through a gastric tube.

[5] = in words; prior art; cited from earlier work
rats = assay: toxicity (LD50) in rats; assay type: in vivo; settings: in words

With `Cc1cn(-c2c(Cl)cccc2Cl)c(N)n1` [compound I, 1-(2',6'-dichlorophenyl)-2-amino-4-methyl-imidazole] the “Average reduction of blood pressure” value ([1]; 10 mg/kg i.v.) was 25%, the “Average reduction of pulse frequency” value ([1]; 10 mg/kg i.v.) was 20% and the “Average reduction of blood pressure” value ([1]; 3,3 mg/kg i.v.) was 20%. For the same compound, the “Average reduction of blood pressure” value [2] was 35%, the minimal effective dose (gastric ulcers; Rattus norvegicus, ip, 3 h, doses as small as, read-out: smallest dose effective in reducing the number of ulcers) was 1 mg/kg and the “dose that prevents the formation of gastric ulcers” value (gastric ulcers) was ~20 mg/kg. For the same compound, the analgesic activity [3] was “analgesic”, the anti-arrhythmic activity [3] was “anti-arrhythmic activity” and the anti-convulsant activity [3] was “anti-convulsant”. For the same compound, the anti-depressant activity [3] was “anti-depressant”, the anti-inflammatory activity [3] was “anti-inflammatory” and the anti-ulcer activity [3] was “anti-ulcer”. For the same compound, the anti-hypertensive activity [4] was “excellent anti-hypertensive activity”, the “reduction of the blood pressure, character and duration” value [4] was “smooth and of relatively long duration” and the “temporary rise of the blood pressure at the beginning of the administration” value [4] was “No temporary rise of the blood pressure is observed”.

For `Nc1nc(CC(=O)O)cn1-c1c(Cl)cccc1Cl` [Compound Ia, 4-[1-(2',6'-dichlorophenyl)-2-amino]-imidazoleacetic acid], the “Mean Cumulative Volume of Urine, 0-1 hours” value (Sprague-Dawley male rats) was 2.6 mL, the “Mean Cumulative Volume of Urine, 0-2 hours” value (Sprague-Dawley male rats) was 10.2 mL and the “Mean Cumulative Volume of Urine, 0-3 hours” value (Sprague-Dawley male rats) was 13.9 mL. For the same compound, the “Mean Cumulative Volume of Urine, 0-4 hours” value (Sprague-Dawley male rats) was 14.7 mL, the “Mean Cumulative Volume of Urine, 0-5 hours” value (Sprague-Dawley male rats) was 16.4 mL and the diuretic activity (Sprague-Dawley male rats) was “significant diuretic activity”.

In the case of `CCOC(=O)Cc1c[nH]c(Nc2c(Cl)cccc2Cl)n1` [Compound IIb, 4-[2-(2',6'-dichloroanilino)]-imidazoleacetic acid ethyl ester], the “Mean Cumulative Volume of Urine, 0-1 hours” value (Sprague-Dawley male rats) is reported as 3.4 mL, the “Mean Cumulative Volume of Urine, 0-2 hours” value (Sprague-Dawley male rats) is reported as 9.5 mL and the “Mean Cumulative Volume of Urine, 0-3 hours” value (Sprague-Dawley male rats) is reported as 13.4 mL. The “Mean Cumulative Volume of Urine, 0-4 hours” value (Sprague-Dawley male rats) was 14.4 mL and the “Mean Cumulative Volume of Urine, 0-5 hours” value (Sprague-Dawley male rats) was 14.4 mL.

For `CCOC(=O)Cc1cn(-c2c(Cl)cccc2Cl)c(N)n1` [Compound Ib, 4-[1-(2',6'-dichlorophenyl)-2-amino]-imidazoleacetic acid ethyl ester], the “Mean Cumulative Volume of Urine, 0-1 hours” value (Sprague-Dawley male rats) was 2.3 mL, the “Mean Cumulative Volume of Urine, 0-2 hours” value (Sprague-Dawley male rats) was 10.9 mL and the “Mean Cumulative Volume of Urine, 0-3 hours” value (Sprague-Dawley male rats) was 12.3 mL. For the same compound, the “Mean Cumulative Volume of Urine, 0-4 hours” value (Sprague-Dawley male rats) was 14.5 mL and the “Mean Cumulative Volume of Urine, 0-5 hours” value (Sprague-Dawley male rats) was 15.7 mL.

For `Clc1cccc(Cl)c1N=C1NCCN1` [clonidine, 2-(2,6-dichloroanilino)-2-imidazoline], the “temporary rise of the blood pressure at the beginning of administration” value [5] is listed as “temporary rise in blood pressure at the beginning of administration”.

With `O=C(O)Cc1c[nH]c(Nc2c(Cl)cccc2Cl)n1` [Compound IIa, 4-[2-(2',6'-dichloroanilino)]-imidazoleacetic acid] the “Mean Cumulative Volume of Urine, 0-1 hours” value (Sprague-Dawley male rats) was 1.3 mL, the “Mean Cumulative Volume of Urine, 0-2 hours” value (Sprague-Dawley male rats) was 8.1 mL and the “Mean Cumulative Volume of Urine, 0-3 hours” value (Sprague-Dawley male rats) was 12.9 mL. The “Mean Cumulative Volume of Urine, 0-4 hours” value (Sprague-Dawley male rats) was 14.3 mL, the “Mean Cumulative Volume of Urine, 0-5 hours” value (Sprague-Dawley male rats) was 14.9 mL and the diuretic activity (Sprague-Dawley male rats) was “significant diuretic activity”.

For `Cc1c[nH]c(Nc2c(Cl)cccc2Cl)n1` [compound II, 2-(2',6'-dichloroanilino)-4-methyl-imidazole], the “Average reduction of blood pressure” value ([1]; 10 mg/kg i.v.) was 25%, the toxicity (rats) was “low toxicity” and the analgesic activity [3] was “analgesic”. For the same compound, the anti-arrhythmic activity [3] was “anti-arrhythmic activity”, the anti-convulsant activity [3] was “anti-convulsant” and the anti-depressant activity [3] was “anti-depressant”. For the same compound, the anti-inflammatory activity [3] was “anti-inflammatory”, the anti-ulcer activity [3] was “anti-ulcer” and the anti-hypertensive activity [4] was “excellent anti-hypertensive activity”. For the same compound, the “reduction of the blood pressure, character and duration” value [4] was “smooth and of relatively long duration” and the “temporary rise of the blood pressure at the beginning of the administration” value [4] was “No temporary rise of the blood pressure is observed”.
